From patent US8168199B2, “Dipeptidyl peptidase IV inhibitors for the treatment of schizophrenia and depression” (priority 2000, dated 2012) come the findings set out here.

The test system of assay [1] is Male WistarF/Han (WF) rats. Briefly: 1 h and 12 h food-intake after i.c.v. P32/98 and NPY (Example 3). It counts as in vivo, rat. On the procedure:
(§1) Animals. Male WistarF/Han (WF) rats (Central Animal Laboratory, Hannover Medical School, Hannover, Germany, weighing 330-370 g, were housed in a sound-proof, temperature controlled (24.0±0.5° C.) room under specific pathogen free conditions with a 12/12 h dark/light cycle (lights on at 07.00 with illumination level of 80 Lux). Food (Altromin lab chow pellets) and tap water were available ad libitum. Under ketamine/xylasine (100/5 mg/kg, i.p.) anesthesia, the rats were fixed in a Kopf stereotaxic frame and implanted with cannulae (Plastic One, Inc., Roanoke, Va., USA) above the lateral ventricle. All research and animal care procedures were approved by the Lower Saxony district government (Hannover, Germany) and followed principles described in the European Community's Council Directive of 24 Nov. 1986 (86/609/EEC).
Surgery and i.c.v. application. For surgery, rats were anesthetized and prepared with i.c.v. cannulae (coordinates: A: −0.7 mm caudal, L: 1.4 mm lateral to bregma; and V3.2 mm ventral to the skull surface; tooth bar +3.0 above ear bars) using standard stereotaxic procedures as described in detail elsewhere (von Hörsten et al., 1998a, b, c). After a 7-day recovery period, successful ventricle cannulation was confirmed by an angiotensin drinking response (von Hörsten et al., 1998a). Rats showing a positive drinking response (n=59) were then habituated to experimental handling by daily sham injections for seven days.
Animals were randomly divided into two sets of four experimental groups (n=5-6/group), which completed different consecutive SI test of anxiety. […] The time spent in active social interaction (SI-time), 1 h and 12 h food-intake were measured. […]
Statistical analysis. Data from repeated observations (food intake) were analyzed by two-way analyses of variance for repeated measures (ANOVA) (factors: “substrain” and “food intake” as repeated measure). Data obtained from simple measures such as DPIV activity or SI time were analyzed by one-way (factor: “substrain”) ANOVA. […]

The subject of assay [2] is Male WistarF/Han (WF) rats. Briefly: Social interaction (SI) test with Y1R antagonist BIBP3226, P32/98 and NPY (Example 4). The format is in vivo, rat. As to conditions: i.c.v. 50 nmol. Here is the method: as §1, with “330±31 g±SD,” for “330-370 g,”
Surgery and i.c.v. application. […]
Animals were randomly divided into eight experimental groups (n=6-8/group), which completed one SI test of anxiety: (1) aCSF+aCSF+aCSF; (2) BIBP+aCSF+aCSF; (3) aCSF+P32/98+aCSF; (4) BIBP+P32/98+aCSF; (5) aCSF+aCSF+NPY; (6) BIBP+aCSF+NPY; (7) aCSF+[…]+NPY; (8) BIBP+P32/98+NPY. […] The time spent in active social interaction (SI-time), 1 h, and 12 h food-intake were measured. […]
Social interaction (SI) test. […] Behavior was monitored using a video camera placed above the field inside the testing/isolation box. The SI behavior of both rats was recorded on-line from a monitor placed outside on top of the box. The following parameters were scored by an observer (HPN) unaware of the substrain of rats: duration of time spent in sniffing, following, crawling under and over other rats, but not passive body contact (resting, sleeping). […]
Statistical analysis. Data obtained from the measures SI time and 1 h food intake were analyzed by one-way (factor: “treatment”) ANOVA. […]

For `CC[C@H](C)[C@H](N)C(=O)N1CCSC1` [P32/98], the “dose at which the 1 h feeding effect reached significance” value in assay [1] (i.c.v.) is reported as 0.05 nmol. Moreover, the “amount of food eaten within 1 h” value in assay [1] (i.c.v. P32/98 5 pmol-500 nmol, NPY 50 pmol-1.6 nmol, dark cycle) is “mild feeding effect”. In addition, the “SI-time, P32/98 alone” value in assay [2] was “acts not anxiolytic-like”.
